# Results: patent US20250195498A1, “INHIBITOR OF CELLULAR PURINE NUCLEOTIDE SALVAGE PATHWAY ENZYME FOR USE IN THE TREATMENT AND/OR PREVENTION OF HELICOBACTER PYLORI INFECTION AND/OR DISEASE ASSOCIATED WITH SUCH INFECTION AND PHARMACEUTICAL COMPOSITION COMPRISING THE SAME” (UNIWERSYTET WARSZAWSKI, priority 2022, published 2025)
# Where “and” joins values, the source holds several entries; their conditions need not be identical. Equal entries are not always repeated. Where two headings read alike, the source gives them in different places.
# Legend:
# Type in all cases: cell-based, Helicobacter pylori
# [1] = test system: H. pylori strain N6; test: Growth curve method / MIC, strain N6; settings: Helicobacter pylori
# Method: (§1) The representative PNP inhibitor from H. pylori included in this study was immucillin A. The experiment was conducted using the growth curve method (two-fold serial dilutions in liquid medium). The tested H. pylori strains were cultured in Petri dishes with BHI solid medium supplemented with 10% FBS and 1% H. pylori Selective Supplement antibiotic kit, in anaerostats under microaerophilic conditions (5% 02, 10% CO2, 85% N2) at 37° C. for 3 days. Liquid culture of H. pylori was conducted overnight with shaking at 37° C. under microaerophilic conditions in BHI medium supplemented with 10% FBS and 1% H. pylori Selective Supplement antibiotic kit. Subsequently, for the essential experiment of determining the minimum inhibitory concentration (MIC), double strengthened liquid BHI medium was prepared, that is, supplemented with 20% FBS and a 2% set of H. pylori Selective Supplement antibiotics.
# (§2) Bacterial proliferation inhibition experiments were carried out in 24-deep-well 2 ml flat-bottomed plates at a solution volume per well of 0.5 ml. In a single well, double strengthened (relative to the concentration planned for testing) solutions of the test inhibitor and double strengthened liquid BHI medium inoculated with H. pylori (10^4-10^5 CFU/ml in the final volume in the well, corresponding to the optical density of the culture OD600=0.05) were mixed together in a 1:1 ratio.
# (§3) Kanamycin at a concentration of 25 μg/ml (Irie et al., 1997) was used as a positive control, while Mili-Q deionized water and BHI medium not inoculated with bacteria were used as negative controls. Plates were shaken at 37° C., under microaerophilic conditions. […] After 24 hours, the OD600 of samples containing the negative control, i.e. with Mili-Q deionized water, was about 1.2-1.4, corresponding to a bacterial concentration of about […].
# (§4) In addition, the method proposed by Knezevic et al. (2018) was used to check whether the observed OD600 was from live bacterial cells. For this purpose, an equal volume of Christensen's double strength urea broth (that is, containing twice the concentration of all components) was added to the wells after incubation, and the plates were additionally incubated for 4 hours in an oxygen atmosphere at 37° C. During incubation, in wells with urease produced by live bacteria, urea is converted to ammonia and carbon dioxide, changing the pH of the solution and thus the colour of the phenol red indicator contained in the medium (from orange to purple).
# (§5) All experiments were performed in triplicate.
# Inhibition by PLP and its metabolic precursors of the growth of H. pylori strains: 26695, N6 and P12 in culture was investigated using the growth curve method as described in Example 3. From these experiments, the minimum inhibitory concentration was determined as the lowest concentration of a compound that inhibits the visible growth of the bacteria, compared to growth in control samples without the tested compounds. All experiments were carried out in triplicate.
# [2] = test system: H. pylori strain M26 (MTZ + CLR resistant); test: Growth curve method / MIC, resistant strain M26; settings: Helicobacter pylori, strain M26, MTZ + CLR resistant
# Method: as §1, §2, §3, §4, §5
# (§6) The antibacterial activity of two compounds, mefloquine (in the form of hydrochloride) and quinine, described in the literature as potent in vitro inhibitors of the PNP enzyme from Plasmodium falciparum (Dziekan et al., 2019), was tested. Using a two-fold serial dilution method in liquid medium (as described in Example 3), the MIC values for mefloquine and quinine were determined against clinical H. pylori strains resistant to MTZ, CLR and MTZ+CLR (M26, M91, M92 and M93), as well as the reference H. pylori strain 26695. Four clinical H. pylori strains isolated from adults, from primary infections (the subjects had never previously been treated against H. pylori infection) were tested. These strains come from the collection of the Department of Microbiology of the Medical University of Wroclaw and were obtained due to collaboration with Prof. Grażyna Gościniak, MD, PhD. The tested compounds belong to organic substances and are soluble in DMSO. The maximum tested concentration of quinine in H. pylori culture was 0.56 mM, and that of mefloquine was 2.25 mM. […] On each occasion, the effect of DMSO alone on the growth of the H. pylori strains tested was also checked. […] Kanamycin was used as a positive control and Mili-Q deionised water as a negative control. All experiments were carried out in triplicate. […]
# [3] = test system: H. pylori strain M91 (MTZ + CLR resistant); test: Growth curve method / MIC, resistant strain M91; settings: Helicobacter pylori, strain M91, MTZ + CLR resistant
# Method: as §1, §2, §3, §4, §5, §6
# [4] = test system: H. pylori strain M93 (MTZ resistant); test: Growth curve method / MIC, resistant strain M93; settings: Helicobacter pylori, strain M93, MTZ resistant
# Method: as §1, §2, §3, §4, §5, §6
# [5] = strain N6, wild-type, read-out: MIC (Table 7)
SMILES,"MIC [1, 5]","MIC ([1]; strain N6, read-out: MIC)",MIC ([2]; read-out: MIC),MIC ([2]; read-out: MIC (Table 7)),MIC ([3]; read-out: MIC),MIC ([3]; read-out: MIC (Table 7)),MIC ([4]; read-out: MIC),MIC ([4]; read-out: MIC (Table 7))
"Cc1ncc(COP(=O)(O)O)c(C=O)c1O [PLP, pyridoxal 5′-phosphate]",2.5 µM,618 µg/mL and 2500 µM,309 µg/mL and 1250 µM,1.25 µM,309 to 618 µg/mL,1.25 to 2.5 µM,309 µg/mL and 1250 µM,1.25 µM
"Cc1ncc(CO)c(C=O)c1O.Cl [PI-h, pyridoxal hydrochloride]",2.5 µM,509 µg/mL and 2500 µM,255 µg/mL and 1250 µM,1.25 µM,255 µg/mL,1.25 µM,255 µg/mL and 1250 µM,1.25 µM
